Data on one compound can be found in patent US6464839B1, “Beta-elemene, method to prepare the same and uses thereof” (Yuan da International Group Limited, priority 1997, dated 2002).

The test system of one series is hepatic solid tumor. In words: Hepatic solid tumor, animal pharmacodynamic study.
For another series, the system named is L1210 leukemia. In words: Murine leukemia L1210, animal pharmacodynamic study. As to conditions: injection.
In series [1] the test system is murine Ehrlich ascites carcinoma. As to conditions: material with beta-elemene 65%, gamma and delta-elemene 20%, impurities 15%; cited from earlier work.
For series [2] the following is noted: material with beta-elemene 65%, gamma and delta-elemene 20%, impurities 15%; cited from earlier work.
The nature of series [3]: Side effects in animal pharmacodynamic studies (bone marrow, white blood cell count). Type of series: in vivo.
Series [4] deals with thalamic glioblastoma; brain metastasis of lung cancer. In words: Treatment of patients with brain tumors with beta-elemene emulsive injection. It is filed as in vivo, human. The protocol:
In two instances, patients at the Second Affiliated Hospital of the Dalian Medical University were treated with the beta-elemene composition as an emulsive injection. The medical records were kept at that hospital.
The patient was hospitalized for surgery in July 1995. […] A beta-elemene emulsive injection was employed through 600 ml cervical artery intubation and 400 ml intravenous drip alternately once per day.
Due to the lung metastasis and the age of the patient, surgery was difficult to perform. The patient was hospitalized in mid November 1996.
The patient was treated with beta-elemene as prepared herein. […] In the middle of December 1996 the patient had another CT scan.

The subject of a further series is S180 solid tumor. Nature of the series: S180 solid tumor, animal pharmacodynamic study. As to conditions: injection.
A short description of series [5]: Passage through the brain-blood barrier. Type of series: in vivo. The settings on record: work of the Department of Embryology, Dalian Medical University.
The subject of the next series is S180 ascites cancer. Nature of the series: S180 ascites cancer, animal pharmacodynamic study. As to conditions: intra-peritoneal injection.
Another series has as its system cerebral neuroglioma. In words: Cerebral neuroglioma, murine sub-renal capsule model. It is filed as in vivo. The text has this: (D) Neuroglioma: It was indicated in the pharmacodynamic study of cerebral neuroglioma using murine sub-renal capsule model that the inhibition rate was 50-70%.
The subject of series [6] is hepatic ascites carcinoma. Nature of the series: Hepatic ascites carcinoma, animal pharmacodynamic study.
In another series the test system is EAC. Nature of the series: EAC ascites carcinoma, animal pharmacodynamic study. The settings on record: EAC ascites cancer, intra-peritoneal injection.
For series [7], the system named is rat ascitic reticulum cell sarcoma. The settings on record: material with beta-elemene 65%, gamma and delta-elemene 20%, impurities 15%; cited from earlier work.
Where [8] appears, read: Patient I, thalamic glioblastoma.

Regarding `C=CC1(C)CCC(C(=C)C)CC1C(=C)C` (stereo not drawn) [beta-elemene, 1-methyl-1-vinyl-2,4-diisoprotenyl-cyclohexane], the inhibition rate is 10-30% in the series on hepatic solid tumor, 33-59% with S180 solid tumor and 50-70% in the series with cerebral neuroglioma. Further, the life prolongation rate is 47-289% in the series on L1210 leukemia, 90-321% in the series with S180 ascites cancer, 103-224% in series [6] and 85-310% with EAC. Besides, the anti-tumor activity result in series [1] and in series [7] was “marked anti-tumor activity” each time. The “side effects during treatment” value in [2] was “Diarrhea and weight loss”. For the same compound, in [3], the “bone marrow inhibition or reduction of white blood cell count” value is recorded as “no measurable bone marrow inhibition or reduction of white blood cell count”. In addition, the “survival with the tumor” value in series [4] (setting [8]) is recorded as 11 months. Besides, the “tumor size on CT scan” value in series [4] (setting [8]) is reported as “no apparent reduction in tumor size”; in series [4] (Patient II, lung cancer with multiple metastasis to the brain, about one month of treatment), “The size of the tumor was reduced”. In addition, the “growth of the tumor” value in series [4] (Patient I, thalamic glioblastoma, cervical artery intubation and intravenous drip alternately once per day) was “quickly controlled”. The “prolongation of the life of the patient” value in [4] (Patient II, based upon previous experience with patients at that stage of illness) is listed as “more than 4 months”. Further, the “ability to pass through the brain-blood barrier (BBB)” value in series [5] is given as “able to pass through the brain-blood barrier (BBB)”.
